Laboratory results: PubChem BioAssay AID1996
Values after ≈ are worked out from the molar mass of the structure shown.

Conditions: buffer; pH 7.4; 200.0 µM

| Structure (SMILES) | solubility kinetic [µg/mL] |
| --- | --- |
| O=C(CNS(=O)(=O)c1ccc(Br)cc1)Nc1ccc2c(c1)OCCO2 | 8.7 (≈ 20.4 µM) |
| C(#CC12CC3CC(CC(C3)C1)C2)CN1CCOCC1 | 17.8 (≈ 68.6 µM) |
| COc1ccc([N+](=O)[O-])cc1NC(=O)COC(=O)c1ccccn1 | 20.9 (≈ 63.1 µM) |
| CC(NC(=O)CN(c1ccc(Br)cc1)S(C)(=O)=O)c1ccccc1 (stereo not given) | > 61.7 |
| Cc1ccc2cc(CCl)c(Cl)nc2c1 | 3.7 (≈ 16.4 µM) |
| Clc1cccc(CN2CCN(c3ncccn3)CC2)c1Cl | 11.1 (≈ 34.3 µM) |
| O=C(Nc1cc2c3c(c1)CC(=O)N3CCC2)c1ccccc1F | 46.4 (≈ 150 µM) |
| O=C(COC(=O)c1cnccn1)c1ccc([N+](=O)[O-])cc1 | > 43.1 |
| O=C(Cc1ccccc1)NCC(=O)N1CCc2ccccc2C1 | > 46.3 |
| Cc1ccc(OCC(=O)Nc2ccc3oc(=O)ccc3c2)cc1 | 1.7 (≈ 5.5 µM) |
| COc1cc(OC)cc(C(=O)NCCCn2ccnc2)c1 | > 43.4 |
| O=S(=O)(Cc1cc(Cl)nc(-c2cccnc2)n1)c1ccccc1 | 40.7 (≈ 118 µM) |
| O=C(NC(=S)NC1CCCCC1)c1ccccc1 | 8.5 (≈ 32.4 µM) |
| COC(=O)c1ccccc1NCC(=O)c1ccc(OC)cc1 | 11.2 (≈ 37.4 µM) |
| CC1CCCCC1NC(=O)CNC(=O)c1cccs1 (stereo not given) | > 42.1 |
| COc1ccc(OC)c(NC(=O)c2nc3ccccc3s2)c1 | < 0.3 |
| Cc1ccnc(NC(=O)CCNC(=O)c2ccc(Cl)cc2)c1 | 14.9 (≈ 46.9 µM) |
| COc1ccc(NCCC(O)c2ccc(Cl)cc2)cc1 (stereo not given) | 40.5 (≈ 139 µM) |
| CCOc1c(Nc2cccc(Cl)c2)c(=O)c1=O | > 37.8 |
| FC(F)(F)c1ccccc1CCN1CCNCC1 | 32.9 (≈ 127 µM) |

| Structure (SMILES) | solubility kinetic [µg/mL] |
| --- | --- |
| COc1ccc(C2c3c(noc3C)CC(C)(O)C2C(C)=O)cc1 (stereo not given) | > 47.3 |
| CCOC(=O)Nc1cccnc1Sc1ccc(Cl)cc1 | 35.1 (≈ 114 µM) |
| Cc1ccc(SCCSc2ncccn2)cc1 | 1.7 (≈ 6.48 µM) |
| O=C1C2CCCCC2C(=O)N1c1nccs1 (stereo not given) | > 35.4 |
| O=C(Nc1ccccc1F)C(c1ccccc1)c1ccccc1 | < 0.7 |
| Cc1ccc(-n2c(C)c(C)c3c(N)ncnc32)cc1 | 16.1 (≈ 63.8 µM) |
| COc1ccc2oc(C(=O)OC(C)C(=O)N3C(C)CCCC3C)c(C)c2c1 (stereo not given) | 8.4 (≈ 22.5 µM) |
| O=C1CN(S(=O)(=O)c2cccc(Br)c2)CCN1 | > 47.9 |
| O=C(Oc1ccccc1)N1CCN(C(=O)c2ccco2)CC1 | > 45 |
| CCCN1C(=O)N(c2cccc(C)c2)C(C)(O)CC1(C)C (stereo not given) | > 43.6 |
| O=C(Nc1ccc(Br)cc1)C1Cc2ccccc2O/C1=N\O (stereo not given) | < 0.4 |
| O=C1CSC(c2ccc([N+](=O)[O-])cc2)N1c1ccccc1 (stereo not given) | 42 (≈ 140 µM) |
| Cc1ccc(OC(C)C(=O)N2CC(=O)Nc3ccccc32)c(C)c1 (stereo not given) | 3 (≈ 9.25 µM) |
| O=C(O)/C=C\C(=O)Nc1cc(O)ccc1[N+](=O)[O-] | > 37.8 |
| COc1cccc(C(=O)c2c[nH]c(C(=O)NCCCN(C)C)c2)c1 | > 49.4 |
| O=[N+]([O-])c1cccc2c(S(=O)(=O)N3CCCCC3)cccc12 | 9.5 (≈ 29.7 µM) |
| CCCCn1c(O)c(C(CC)=NCCCn2ccnc2)c(=O)[nH]c1=O | 48.2 (≈ 139 µM) |
| COc1ccc(C(=O)C(C)OC(=O)CNC(=O)c2ccco2)cc1 (stereo not given) | > 49.7 |
| COc1ccc(/C(N)=N/OC(=O)C2CCCCC2)cc1 | 20.6 (≈ 74.5 µM) |
| COc1ccccc1NC(=O)CN(Cc1ccco1)C(=O)c1ccc(N2CCCC2=O)cc1 | 64.9 (≈ 145 µM) |

| Structure (SMILES) | solubility kinetic [µg/mL] |
| --- | --- |
| CC(=O)O/N=C/c1c(NCc2ccccc2)nc2c(C)cccn2c1=O | 25.7 (≈ 73.3 µM) |
| Cc1nc2cc(NS(=O)(=O)c3ccccc3)ccc2n1C | 15.6 (≈ 51.8 µM) |
| Cc1cccc(OC(C)C(=O)N2CCCN(C)CC2)c1C (stereo not given) | > 43.6 |
| Cc1ccc(C(=O)N2c3ccccc3CC2C)o1 (stereo not given) | 31.6 (≈ 131 µM) |
| COc1cc(C(=O)OCC(=O)Nc2ccc(S(=O)(=O)NC3=NCCCCC3)cc2)cc(OC)c1OC | 73.5 (≈ 141 µM) |
| COc1cccc(NC(=S)N(CCC(C)C)C(C)c2ccncc2)c1 (stereo not given) | 44.4 (≈ 124 µM) |
| Cc1nonc1NC(=O)CSc1nc2ccc(Cl)cc2[nH]1 | 36.4 (≈ 112 µM) |
| CC(OC(=O)/C=C/c1cccc(F)c1)C(=O)NC1CCCCC1C (stereo not given) | 1.9 (≈ 5.7 µM) |
| CC(C1CCN(Cc2nc(C3CC3)no2)CC1)N1CCOCC1 (stereo not given) | 47.9 (≈ 149 µM) |
| O=C(Nc1ccccc1N1CCOCC1)c1ccco1 | 35 (≈ 129 µM) |
| COc1ccc(NC(=O)NCCCCc2ccccc2)cc1OC | 0.6 (≈ 1.83 µM) |
| CC(C)C(=O)N1CCC(Cc2ccccc2)CC1 | 33.5 (≈ 137 µM) |
| O=C(C1CC1)N1c2ccccc2Sc2ccccc21 | 7.1 (≈ 26.6 µM) |
| Cn1c(N)c(C(=O)CSc2nnc(C3CC3)n2-c2ccccc2)c(=O)[nH]c1=O | > 59.8 |
| CC(C)(C)c1csc(CS(=O)(=O)c2ccccn2)n1 | > 44.5 |
| O=S(=O)(Nc1ccccc1F)c1cccc(NC(=S)NCCN2CCOCC2)c1 | 51.6 (≈ 118 µM) |
| O=C(c1cc(-c2ccc(F)cc2)on1)N1CCOCC1 | > 41.4 |
| O=C(NC(=S)Nc1ccc(Br)cc1)C1CCC1 | 2.6 (≈ 8.3 µM) |
| COc1ccc(C(=O)/C=C/c2cccnc2)c(OC)c1 | > 40.4 |
| Cc1cc(OCC(=O)Nc2ccncc2)ccc1[N+](=O)[O-] | 35.8 (≈ 125 µM) |
